The target in the test is T1, GPR119 (Homo sapiens, UniProt Q8TDV5).
T1 construct: expressed in transfected cells; host or cells: Flp-In-T-REx 293
T1 sequence (Q8TDV5 1-335): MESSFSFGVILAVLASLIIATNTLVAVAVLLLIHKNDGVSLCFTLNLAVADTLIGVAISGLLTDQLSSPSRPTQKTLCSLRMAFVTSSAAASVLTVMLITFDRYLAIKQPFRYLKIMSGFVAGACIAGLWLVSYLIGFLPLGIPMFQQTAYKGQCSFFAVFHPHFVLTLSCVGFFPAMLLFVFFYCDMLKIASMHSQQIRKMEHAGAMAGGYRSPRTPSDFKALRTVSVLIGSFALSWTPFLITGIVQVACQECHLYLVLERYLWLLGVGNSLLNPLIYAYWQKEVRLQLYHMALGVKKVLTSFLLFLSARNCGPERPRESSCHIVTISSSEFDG
In words: Human Tet-Inducible cAMP Assay (hEC50, Table 1). The test is classed as cell-based. Further details: IA: scale not given here. Particulars: for IA: IA as printed beside hEC50 (not defined in the text); for pEC50: human GPR119 agonist activity, cAMP. The protocol:
The in vitro modulation of GPR119 was determined as follows.
Human Tet-Inducible cAMP Assay
Cell lines using the Flp-In-T-REx 293 tetracycline inducible gene expression system are cultured in culture medium comprising the following components: DMEM#11965, 10% FBS, 2 mM L-glutamine, 200 ug/ml Hygromycin B, and 15 ug/ml blasticidin.
For cAMP assays, cells are plated on 96 well plates (e.g., BD Falcon: REF 353948, black side, clear bottom, TC surface) at a density of about 4.5×10^4 cells per well in growth medium containing 1.0 ug/ml tetracycline (1.0 mg/ml stock). The cells are then incubated for 48 hours at 37° C.
Following the incubation, the growth medium is removed from the wells and the wells rinsed (once) with the assay buffer included in the Hit Hunter cAMP kit (100 μl/well). Following the wash, 20 μl of assay buffer is added to each well, followed by addition of 10 μl of a 3× concentration compound working solution. The solution is then mixed. The final concentration range of compound is from about 10^−5M to about 10^−11M. The reagents are then incubated at 37° C. at 5% CO2 for 1 hour.
The manufacturer's protocol may be followed for cAMP determination. The Hit Hunter cAMP kit protocol is outlined for the HIT-T15 cAMP assays described above.

As a reminder, the pEC50 is −log10 of the EC50, conventionally taken in molar units.

Structures are written as SMILES. pEC50: −log10 of the molar value.

Turning to `CC(C)(C)OC(=O)N1CCC(n2nnc3c(Nc4ccc(S(C)(=O)=O)cc4F)nccc32)CC1` [Example 1, tert-Butyl 4-(4-(2-fluoro-4-(methylsulfonyl)phenylamino)-1H-[1,2,3]triazolo[4,5-c]pyridin-1-yl)piperidine-1-carboxylate], the IA is on record as 0.55 and the pEC50 is 5.86.
On the same counts, the results for `CC(C)(C)OC(=O)N1CCC(n2nnc3c(Oc4ccc(S(C)(=O)=O)cc4)nccc32)CC1` [Example 2, tert-Butyl 4-(4-(4-(methylsulfonyl)phenoxy)-1H-[1,2,3]triazolo[4,5-c]pyridin-1-yl)piperidine-1-carboxylate] are 0.29 and 5.45.
With `CC(C)(C)OC(=O)N1CCC(n2nnc3c(Nc4ccc(S(C)(=O)=O)cc4F)ncnc32)CC1` [Example 3, tert-Butyl 4-(7-(2-fluoro-4-(methylsulfonyl)phenylamino)-3H-[1,2,3]triazolo[4,5-d]pyrimidin-3-yl)piperidine-1-carboxylate], the pEC50 is 7.71.
In turn, `CC(C)(C)OC(=O)N1CCC(n2cnc3c(Nc4ccc(C#N)cc4F)ncnc32)CC1` [Example 4, tert-Butyl 4-(6-(4-cyano-2-fluorophenylamino)-9H-purin-9-yl)piperidine-1-carboxylate] gave an IA of 0.70 and a pEC50 of 6.54.
With `CC(C)(C)OC(=O)N1CCC(n2nnc3c(Nc4ccc(C#N)cc4Cl)nccc32)CC1` [Example 5, tert-Butyl 4-(4-(2-chloro-4-cyanophenylamino)-1H-[1,2,3]triazolo[4,5-c]pyridin-1-yl)piperidine-1-carboxylate], the IA was 0.27 and the negative logarithm of the EC50 (pEC50) is 6.39.
Compound `CC(C)OC(=O)N1CCC(n2nnc3c(Nc4ccc(S(C)(=O)=O)cc4F)ncnc32)CC1` [Example 6, iso-Propyl 4-(7-(2-fluoro-4-(methylsulfonyl)phenylamino)-3H-[1,2,3]triazolo[4,5-d]pyrimidin-3-yl)piperidine-1-carboxylate] showed an IA of 0.86 and a pEC50 of 6.86.
Regarding `CC(C)OC(=O)N1CCC(n2nnc3c(Nc4ccc(S(C)(=O)=O)cc4Cl)ncnc32)CC1` [Example 7, iso-Propyl 4-(7-(2-chloro-4-(methylsulfonyl)phenylamino)-3H-[1,2,3]triazolo[4,5-d]pyrimidin-3-yl)piperidine-1-carboxylate], the IA amounted to 0.68 and the pEC50 was 7.13.
On to `CS(=O)(=O)c1ccc(Nc2ncnc3c2nnn3C2CCN(c3ncccn3)CC2)c(F)c1` [Example 8, N-(2-Fluoro-4-(methylsulfonyl)phenyl)-3-(1-(pyrimidin-2-yl)piperidin-4-yl)-3H-[1,2,3]triazolo[4,5-d]pyrimidin-7-amine], for which the IA amounted to 0.67 and the negative-log EC50 (pEC50) is 6.66.
`CCc1cnc(N2CCC(n3nnc4c(Nc5ccc(S(C)(=O)=O)cc5F)ncnc43)CC2)nc1` [Example 9, 3-(1-(5-Ethylpyrimidin-2-yl)piperidin-4-yl)-N-(2-fluoro-4-(methylsulfonyl)phenyl)-3H-[1,2,3]triazolo[4,5-d]pyrimidin-7-amine] had an IA of 0.56 and a pEC50 of 6.58.
For `CC(C)OC(=O)N1CCC(n2cnc3c(Nc4ccc(S(C)(=O)=O)cc4F)ncnc32)CC1` [Example 10, iso-Propyl 4-(6-(2-fluoro-4-(methylsulfonyl)phenylamino)-9H-purin-9-yl)piperidine-1-carboxylate], the IA came out at 0.79 and the pEC50 is 6.39.
`CS(=O)(=O)c1ccc(Nc2ncnc3c2ncn3C2CCN(c3ncccn3)CC2)c(F)c1` [Example 11, N-(2-Fluoro-4-(methylsulfonyl)phenyl)-9-(1-(pyrimidin-2-yl)piperidin-4-yl)-9H-purin-6-amine] gave an IA of 0.81 and a pEC50 of 6.44.
On the same counts, the results for `CS(=O)(=O)c1ccc(Nc2ncnc3c2cnn3C2CCN(C(=O)OCc3ccccc3)CC2)c(F)c1` [Example 12, Benzyl 4-(4-(2-fluoro-4-(methylsulfonyl)phenylamino)-1H-pyrazolo[3,4-d]pyrimidin-1-yl)piperidine-1-carboxylate] are 0.47 and 6.69.
In the case of `CC(C)OC(=O)N1CCC(n2ncc3c(Nc4ccc(S(C)(=O)=O)cc4F)ncnc32)CC1` [Example 13, Isopropyl 4-(4-(2-fluoro-4-(methylsulfonyl)phenylamino)-1H-pyrazolo[3,4-d]pyrimidin-1-yl)piperidine-1-carboxylate], the IA was found to be 0.69 and the pEC50 was 6.51.
Turning to `CS(=O)(=O)c1ccc(Nc2ncnc3c2cnn3C2CCN(c3ncccn3)CC2)c(F)c1` [Example 14, N-(2-Fluoro-4-(methylsulfonyl)phenyl)-1-(1-(pyrimidin-2-yl)piperidin-4-yl)-1H-pyrazolo[3,4-d]pyrimidin-4-amine], the IA was found to be 0.76 and the pEC50 is 6.26.
`CCc1cnc(N2CCC(n3ncc4c(Nc5ccc(S(C)(=O)=O)cc5F)ncnc43)CC2)nc1` [Example 15, 1-(1-(5-Ethylpyrimidin-2-yl)piperidin-4-yl)-N-(2-fluoro-4-(methylsulfonyl)phenyl)-1H-pyrazolo[3,4-d]pyrimidin-4-amine] gave an IA of 0.94 and a pEC50 of 7.12.
In turn, `CCCc1cnc(N2CCC(n3ncc4c(Nc5ccc(S(C)(=O)=O)cc5F)ncnc43)CC2)nc1` [Example 16, N-(2-Fluoro-4-(methylsulfonyl)phenyl)-1-(1-(5-propylpyrimidin-2-yl)piperidin-4-yl)-1H-pyrazolo[3,4-d]pyrimidin-4-amine] showed an IA of 1.11 and a pEC50 of 7.09.
As to `Cc1ncccc1Oc1ncnc2c1cnn2C1CCN(C(=O)OCc2ccccc2)CC1.Cl` [Example 17, Benzyl 4-(4-(2-methylpyridin-3-yloxy)-1H-pyrazolo[3,4-d]pyrimidin-1-yl)piperidine-1-carboxylate, hydrochloride salt], the IA is 0.31 and the negative logarithm of the EC50 (pEC50) is 5.72.
`Cc1ncccc1Oc1ncnc2c1cnn2C1CCN(C(=O)OC(C)C)CC1.Cl` [Example 18, Isopropyl 4-(4-(2-methylpyridin-3-yloxy)-1H-pyrazolo[3,4-d]pyrimidin-1-yl)piperidine-1-carboxylate, hydrochloride salt] had an IA of 0.17 and a pEC50 of 5.57.
On to `CC(C)OC(=O)N1CCC(n2ncc3c(Oc4cccnc4C#N)ncnc32)CC1` [Example 19, Isopropyl 4-(4-(2-cyanopyridin-3-yloxy)-1H-pyrazolo[3,4-d]pyrimidin-1-yl)piperidine-1-carboxylate], for which the IA is listed as 0.13 and the pEC50 is 6.30.

The values above are taken from US8476283B2, “[6,5]—bicyclic GPR119 G protein-coupled receptor agonists” (Bristol-Myers Squibb Company, priority 2007, dated 2013).
